“Also recorded” adds a separate entry of the source. Where two headings read alike, the source gives them in different places.
Experiments:
[1] = tested on: THP-1 monocytes; experiment: Viability of THP-1 monocytes after transfection, Cell Titer Glo; assay type: cell-based, human
Procedure: Relative viability was determined using a Cell Titer Glo viability assay and calculating viability relative to untransfected cells.

[2] = tested on: THP-1 human monocyte cell line; experiment: THP-1 monocyte transfection efficiency, GFP mRNA lipoplexes and LNPs, flow cytometry; assay type: cell-based; conditions: for transfection efficiency in lipoplex screen (in words): Family D lipoplexes, lipid:mRNA weight ratio of 2:1, THP-1; for in vitro transfection efficiency, LNP form (in words): LNPs
Procedure: (§1) LNPs were formulated through bulk mixing using a molar ratio of 50:38.5:10:1.5 (ionizable lipid/cholesterol/DSPC/DMG-PEG2000) and a 0.067 weight ratio of mRNA to ionizable lipid. Lipoplexes were formulated at various weight ratios of lipid:mRNA, and mRNA loading efficiency was determined via gel electrophoresis.
To evaluate transfection efficiency and cytotoxicity, THP-1 monocytes and Jurkat T cells were transfected with lipoplexes and lipid nanoparticles.
Density plots are shown of GFP+ transfected cells from doses of 2000 ng RNA per 120,000 cells for each formulation.
These 5 lipids are all in the Family D with a spermine headgroup and bis 2-hexyldecanoate tails. Lipids are listed in order of increasing carbon spacer link length. Lipoplexes were created using a lipid:mRNA weight ratio of 2:1 for each formulation.
The measured diameter of the Compound XVI lipoplexes was 359 nm. Compound XVI also functioned effectively as a solid LNP when using a molar ratio of 50:38.5:10:1.5 (ionizable lipid/cholesterol/DSPC/DMG-PEG2000) and a 0.12 weight ratio of mRNA to ionizable lipid. […] The ability to efficiently target blood cells using lipid delivery systems opens the door to a variety of applications, including potent in vivo mRNA delivery and cell reprogramming. […]

[3] = Zeta potential of nanoparticle formulation; assay type: physicochemical; conditions: LNPs, at a pH of 7.0
[4] = Dynamic light scattering, hydrodynamic diameter of the nanoparticles; assay type: physicochemical
Procedure: […] Lipoplexes were formulated at various weight ratios of lipid:mRNA, and mRNA loading efficiency was determined via gel electrophoresis. […] Dynamic light scattering (DLS) was used to determine hydrodynamic diameter of the nanoparticles, graphed as number particle size distribution. Polydispersity index (PDI) was also measured.

[5] = tested on: Jurkat T cells; experiment: Jurkat T cell transfection efficiency of lipoplex formulations, flow cytometry; assay type: cell-based; conditions: lipoplexes, 100 ng RNA per 100,000 cells, compared to other lipids in Family D
Procedure: To evaluate transfection efficiency and cytotoxicity, THP-1 monocytes and Jurkat T cells were transfected with lipoplexes and lipid nanoparticles. […] A screen of 4 lipoplex formulations was analyzed using flow cytometry for doses of 100 ng RNA per 100,000 cells.

[6] = Encapsulation efficiency of LNPs, RiboGreen assay; assay type: physicochemical; conditions: for average encapsulation efficiency (%): RiboGreen
Procedure: as §1, with “electrophoresis. […] Encapsulation efficiency of LNPs was measured using a RiboGreen assay.” for “electrophoresis.”

[7] = tested on: HEKn cells; experiment: LNP transfection efficacy in HEKn cells, mean GFP fluorescence intensity; assay type: cell-based; conditions: increasing amounts of mRNA
Procedure: Experiments were conducted to characterize LNP transfection efficacy of Compound XXXV in HEKn cells. A performance comparison was run between control (ToRNAdo lipoplex) and test subject Compound XXXV LNP with increasing amounts of mRNA, with other variables held constant. […] Mean GFP fluorescence intensity was calculated using Operetta® Harmony software. […] An experiment was conducted to characterize lipoplex efficiency in Jurkat cells. A performance comparison was run between control (Lipofectamine 3000) and spermine bis hexyldecanoate ionizable lipid compounds with varying tether length (3-7). Lipid:mRNA weight ratios were optimized for each lipid as determined by gel electrophoresis (Compound XX (2:1), Compound XXVIII (2.5:1), Compound XIX (1:2), Compound XVI (2.5:1), Compound XXIV (1:1)). […] The bottom panels (“Neg.”) of FIG. 57 depict negative control experiments wherein no RNA was delivered.

[8] = tested on: rat dermal tissue; experiment: Intradermal injection of lipid-complexed GFP mRNA in rats; assay type: in vivo; conditions: 2000 ng GFP mRNA, 48 hours
Procedure: In this Example, in vivo experiments were carried out in rats to investigate the transfection and expression efficiency of RNA complexed with the lipids of the present disclosure.
2000 ng of DLinDHS-complexed GFP mRNA was administered to rats by intradermal injection. After 48 hours, the injection site was fixed and stained (anti-rabbit GFP).

## CCCCCCCCC(CCCCCC)C(=O)OCCCCCN(CCCN)CCCCN(CCCN)CCCCCOC(=O)C(CCCCCC)CCCCCCCC (stereo not drawn) [Compound XIX]
[1]
  toxicity, relative viability of THP-1 monocytes after transfection (in words): greatest toxicity
[2]
  transfection efficiency in lipoplex screen (in words): greatest transfection efficiency

## CCCCCCCCC(CCCCCC)C(=O)OCCCCCCN(CCCN)CCCCN(CCCN)CCCCCCOC(=O)C(CCCCCC)CCCCCCCC (stereo not drawn) [Compound XVI, (butane-1,4-diylbis((3-aminopropyl)azanediyl))bis(hexane-6,1-diyl) bis(2-hexyldecanoate)]
[3]
  surface charge: +3.6 mV
[1]
  toxicity, viability of THP-1 monocytes after transfection (in words): significantly greater toxicity than respective Compound XVI lipoplexes
[4]; lipoplexes
  measured diameter of the lipoplexes: 359 nm
[4]; solid LNP, molar ratio 50:38.5:10:1.5 (ionizable lipid/cholesterol/DSPC/DMG-PEG2000), 0.12 weight ratio of mRNA to ionizable lipid
  diameter of LNPs: 170 nm
[5]
  transfection in the Jurkat T cell line (in words): greatest transfection
[2]
  transfection efficiency in lipoplex screen (in words): greatest transfection efficiency
[2]; GFP mRNA, THP-1
  in vitro transfection efficiency, LNP form (in words): greater in vitro transfection efficiency than the clinically used Dlin-MC3-DMA LNPs; also recorded: greater in vitro transfection efficiency of THP-1 monocytes than commercially-available controls
[2]; lipoplexes, GFP mRNA, THP-1
  half-maximal effective concentration (EC50): 147 ng RNA per 50,000 cells
  in vitro transfection efficiency, lipoplex form (in words): greatest transfection efficiency; also recorded: greater in vitro transfection efficiency of THP-1 monocytes than commercially-available controls
[6]
  encapsulation efficiency of LNPs (in words): near complete encapsulation efficiency; also recorded: greater encapsulation of mRNA
  average encapsulation efficiency (%): 87.0%

## CCCCCCCCC(CCCCCC)C(=O)OCCCCCCN(CCCCN(CCCCCCOC(=O)C(CCCCCC)CCCCCCCC)CC(O)CN)CC(O)CN (stereo not drawn) [Compound XXXV, (butane-1,4-diylbis((3-amino-2-hydroxypropyl)azanediyl))bis(hexane-6,1-diyl) bis(2-hexyldecanoate)]
[7]
  LNP transfection into HEKn cells, mean GFP fluorescence intensity (in words): successful transfection into HEKn cells with diminishing returns as mRNA dosage increased

## CCCCC/C=C\C/C=C\CCCCCCCCC(CCCCCCCC/C=C\C/C=C\CCCCC)OC(=O)CCCN(C)C [DLin-MC3-DMA, reference compound]
[1]; LNPs and lipoplexes (FIG. 10)
  toxicity, viability of THP-1 monocytes after transfection (in words): very little toxicity
[2]; GFP mRNA, THP-1
  in vitro transfection efficiency, LNP form (in words): low transfection efficiency
[6]
  average encapsulation efficiency (%): 61.7%

## CCCCC/C=C\C/C=C\CCCCCCCCN(CCCCN(CCCCCCCC/C=C\C/C=C\CCCCC)CC(O)CN)CC(O)CN (stereo not drawn) [DLinDHS, N^1,N^4-dilinoleyl-N^1,N^4-di-(2-hydroxy-3-aminopropyl)-diaminobutane]
[8]
  GFP reporter expression after intradermal injection (in words): localized expression in the dermal layer

Reference: US20260144753A1, “MULTIVALENT IONIZABLE LIPID DELIVERY SYSTEMS” (Factor Bioscience Inc., priority 2023, published 2026)
